Reference: US6686393B1, “Pharmaceutical compositions having antiviral activity against human cytomegalovirus” (Murdock International Corporation, priority 1990, dated 2004)
Read-outs that look alike come from different tables or passages of the source.

Key:
[1] = test system: human cytomegalovirus (HCMV), strain AD-169; assay: Antiviral test (plaque reduction) versus HCMV, strain AD-169, in MRC-5 cells; format: cell-based; details: for % Reduction / Number of Plaques: Example 6
[2] = Human betaherpesvirus 5, AD169, MRC5, read-out: % Reduction
[3] = 10 μg/ml, Example 2, ethanol stock (protohypericin in DMSO), cells exposed 6 or more days
[4] = Example 2, cells exposed 6 or more days
[5] = Table 9 summary, two values = two experiments

| Compound | CD50 (MRC-5 cells; human) [µg/mL] | Percent Inhibition of Plaque Numbers (Compared to Virus Controls) ([1]; 0.01 μg/ml, Example 2) [%] | Percent Inhibition of Plaque Numbers (Compared to Virus Controls) ([1]; 0.032 μg/ml, Example 2) [%] | Percent Inhibition of Plaque Numbers (Compared to Virus Controls) ([1]; 0.1 μg/ml, Example 2) [%] | Percent Inhibition of Plaque Numbers (Compared to Virus Controls) ([1]; 0.32 μg/ml, Example 2) [%] | Percent Inhibition of Plaque Numbers (Compared to Virus Controls) ([1]; 1.0 μg/ml, Example 2) [%] | Percent Inhibition of Plaque Numbers (Compared to Virus Controls) ([1]; 3.2 μg/ml, Example 2) | Percent Inhibition of Plaque Numbers (Compared to Virus Controls) [1, 3] | CD50 (MRC-5 cells; [4]) [µg/mL] | CD50 (MRC-5 cells; [5]) [µg/mL] | other results |
| --- | --- | --- | --- | --- | --- | --- | --- | --- | --- | --- | --- |
| O=C1c2cccc(O)c2C(=O)c2cccc(O)c21 [Anthrarufin, anthrarufin] | >10 |  |  |  |  |  |  |  |  |  | inhibition at 0.01 µg/mL [1, 2]: 0%; inhibition at 0.032 µg/mL [1, 2]: 0%; inhibition at 0.1 µg/mL [1, 2]: 0%; inhibition at 0.32 µg/mL [1, 2]: 0%; inhibition at 1 µg/mL [1, 2]: 0%; inhibition at 3.2 µg/mL [1, 2]: 0%; inhibition at 10 µg/mL [1, 2]: 0% |
| Cc1cc(O)c2c(c1)C(=O)c1cccc(O)c1C2=O [Chrysophanol, chrysophanol] | >10 |  |  |  |  |  |  |  |  |  | inhibition at 0.01 µg/mL ([1]; Human betaherpesvirus 5, AD169, MRC5, 0.01 μg/ml, Example 2, read-out: Percent Inhibition of Plaque Numbers (Compared to Virus Controls)): 0%; inhibition at 0.032 µg/mL ([1]; Human betaherpesvirus 5, AD169, MRC5, 0.032 μg/ml, Example 2, read-out: Percent Inhibition of Plaque Numbers (Compared to Virus Controls)): 0%; inhibition at 0.1 µg/mL ([1]; Human betaherpesvirus 5, AD169, MRC5, 0.1 μg/ml, Example 2, read-out: Percent Inhibition of Plaque Numbers (Compared to Virus Controls)): 0%; inhibition at 0.32 µg/mL ([1]; Human betaherpesvirus 5, AD169, MRC5, 0.32 μg/ml, Example 2, read-out: Percent Inhibition of Plaque Numbers (Compared to Virus Controls)): 0%; inhibition at 1 µg/mL ([1]; Human betaherpesvirus 5, AD169, MRC5, 1.0 μg/ml, Example 2, read-out: Percent Inhibition of Plaque Numbers (Compared to Virus Controls)): 0%; inhibition at 3.2 µg/mL ([1]; Human betaherpesvirus 5, AD169, MRC5, 3.2 μg/ml, Example 2, read-out: Percent Inhibition of Plaque Numbers (Compared to Virus Controls)): 0%; inhibition at 10 µg/mL ([1]; Human betaherpesvirus 5, AD169, MRC5, 10 μg/ml, Example 2, ethanol stock (protohypericin in DMSO), cells exposed 6 or more days, read-out: Percent Inhibition of Plaque Numbers (Compared to Virus Controls)): 0% |
| Cc1cc(O)c2c(c1)C(C1c3cc(C)cc(O)c3C(=O)c3c(O)cc(O)cc31)c1cc(O)cc(O)c1C2=O (stereo not shown) [Emodin Bianthrone (d,1), emodin bianthrone] |  | 0 | 0 | 0 | 0 | 33 | toxic | toxic | 1.2 | 1.2 |  |
| Cc1cc(O)c2c(c1)C(C1c3cc(C)cc(O)c3C(=O)c3c(O)cc(O)cc31)c1cc(O)cc(O)c1C2=O (stereo not drawn) [Emodin Bianthrone (meso), emodin bianthrone] |  | 0 | 0 | 0 | 0 | 32 | toxic | toxic | 1.8 | 1.8 |  |
| O=C(O)c1cc(O)c2c(c1)[C@@H]([C@H]1c3cc(C(=O)O)cc(O)c3C(=O)c3c(O[C@@H]4O[C@H](CO)[C@@H](O)[C@H](O)[C@H]4O)cccc31)c1cccc(O[C@@H]3O[C@H](CO)[C@@H](O)[C@H](O)[C@H]3O)c1C2=O [Meso Sennoside B, sennoside B] |  | 0 | 0 | 0 | 0 | 0 | 0% | 0% | >10 | >10 |  |
| COc1cc(O)c2c(c1)C(=O)c1cc(C)cc(O)c1C2=O [Physcione, physcione] |  |  |  |  |  |  |  |  |  |  | % Reduction ([1]; 0.01 μg/ml): 0%; Number of Plaques ([1]; 0.01 μg/ml): 17; % Reduction ([1]; 0.032 μg/ml): 0%; Number of Plaques ([1]; 0.032 μg/ml): 14; % Reduction ([1]; 0.1 μg/ml): 0%; Number of Plaques ([1]; 0.1 μg/ml): 19; % Reduction ([1]; 0.32 μg/ml): 0%; Number of Plaques ([1]; 0.32 μg/ml): 18; % Reduction ([1]; 1.0 μg/ml): 0%; Number of Plaques ([1]; 1.0 μg/ml): 18; % Reduction ([1]; 3.2 μg/ml): 0%; Number of Plaques ([1]; 3.2 μg/ml): 25; % Reduction ([1]; 10.0 μg/ml): 0%; Number of Plaques ([1]; 10.0 μg/ml): 31; CD50 (MRC-5 cells): >10 µg/mL |
